Literature values, collected in patent US10092188B2, “Methods and compositions for identifying subjects at risk of developing stent thrombosis” (VisEn Medical, Inc., priority 2008, dated 2018).

Absorbance max (absorbance maximum of commercially available fluorochrome): 675 nm
εmax (extinction coefficient of commercially available fluorochrome): 250,000 M^−1cm^−1
Substance: CY™ 5.5
